Reference: ChEMBL document CHEMBL1201862, “PubChem BioAssay data set” (2004)
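Dose response: 5 concentrations. Exposure: 48 h. Format: 96-well plates. Endpoint: linear interpolation; highest concentration if not reached. Here, GI50 denotes the concentration required for 50% inhibition of growth.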 Activity calls are given as the source filed them. Rule as the data show it: active = GI50 up to about 1.1 µM and inactive = higher.

Tests used:
Test in all cases: growth of human tumour cells (NCI), 48 h
[1] = test system: RPMI-8226
[2] = test system: COLO 205
[3] = test system: RXF 631
[4] = test system: DMS-273
[5] = test system: Malme-3M
[6] = test system: KM-20L2
[7] = test system: NCI-H226
[8] = test system: SF-295
[9] = test system: SF-539
[10] = test system: HT-29
[11] = test system: HOP-92
[12] = test system: OVCAR-3
[13] = test system: CCRF-CEM
[14] = test system: ACHN
[15] = test system: KM12
[16] = test system: HOP-62
[17] = test system: OVCAR-4
[18] = test system: SK-MEL-2
[19] = test system: SF-268
[20] = test system: SW-620
[21] = test system: HCT-116
[22] = test system: SNB-75
[23] = test system: DMS-114
[24] = test system: SK-MEL-5
[25] = test system: HCT-15
[26] = test system: A498
[27] = test system: DLD-1
[28] = test system: UO-31
[29] = test system: LOX IMVI
[30] = test system: SNB-78
[31] = test system: UACC-257
[32] = test system: MOLT-4
[33] = test system: SK-OV-3
[34] = test system: RXF 393
[35] = test system: EKVX
[36] = test system: M14
[37] = test system: OVCAR-5
[38] = test system: XF498
[39] = test system: HCC 2998
[40] = test system: A549
[41] = test system: NCI-H460
[42] = test system: SK-MEL-28
[43] = test system: HOP-18
[44] = test system: SNB-19
[45] = test system: NCI-H23
[46] = test system: UACC-62
[47] = test system: K562
[48] = test system: TK-10
[49] = test system: NCI-H522
[50] = test system: LXFL 529
[51] = test system: CAKI-1
[52] = test system: 786-0
[53] = test system: M19-MEL
[54] = test system: OVCAR-8
[55] = test system: U-251
[56] = test system: IGROV-1
[57] = test system: MDA-MB-435
[58] = test system: SR
[59] = test system: HL-60
[60] = test system: SN12C
[61] = test system: BT-549
[62] = test system: T47D
[63] = test system: DU-145
[64] = test system: MDA-MB-231
[65] = test system: NCI/ADR-RES
[66] = test system: PC-3
[67] = test system: MDA-N
[68] = test system: MCF7

`O=C1c2ccccc2C(=O)c2nc(-c3ccccc3)c(-c3ccccc3)nc21` was tested, and the GI50 [1] was > 100 µM (inactive), the GI50 [2] was 17.7 µM (inactive) and the GI50 [3] was 33.4 µM (inactive). For the same compound, the GI50 [4] was 33.7 µM (inactive), the GI50 [5] was 1.22 µM (inactive) and the GI50 [6] was 50.5 µM (inactive). For the same compound, the GI50 [7] was 22.5 µM (inactive), the GI50 [8] was 11 µM (inactive) and the GI50 [9] was 24.7 µM (inactive). The GI50 [10] was 21.7 µM (inactive), the GI50 [11] was 20.3 µM (inactive) and the GI50 [12] was 2.58 µM (inactive). The GI50 [13] was > 100 µM (inactive), the GI50 [14] was > 100 µM (inactive) and the GI50 [15] was > 100 µM (inactive). The GI50 [16] was 33 µM (inactive), the GI50 [17] was 7.08 µM (inactive) and the GI50 [18] was 10.8 µM (inactive). For the same compound, the GI50 [19] was > 100 µM (inactive), the GI50 [20] was 2.7 µM (inactive) and the GI50 [21] was > 100 µM (inactive). The GI50 [22] was 8.15 µM (inactive), the GI50 [23] was 1.21 µM (inactive) and the GI50 [24] was 1.49 µM (inactive). The GI50 [25] was greater than 88.1 µM, the GI50 [26] was 28.2 µM (inactive) and the GI50 [27] was > 100 µM (inactive). The GI50 [28] was > 100 µM (inactive), the GI50 [29] was 8.04 µM (inactive) and the GI50 [30] was > 100 µM (inactive). For the same compound, the GI50 [31] was 1.89 µM (inactive), the GI50 [32] was > 100 µM (inactive) and the GI50 [33] was > 100 µM (inactive). The GI50 [34] was > 43.5 µM (inactive), the GI50 [35] was > 100 µM (inactive) and the GI50 [36] was 5.69 µM (inactive). The GI50 [37] was > 100 µM (inactive), the GI50 [38] was 14.4 µM (inactive) and the GI50 [39] was > 100 µM (inactive). The GI50 [40] was 22.8 µM (inactive), the GI50 [41] was 5.83 µM (inactive) and the GI50 [42] was > 74.1 µM (inactive). For the same compound, the GI50 [43] was 26.7 µM (inactive), the GI50 [44] was 24.9 µM (inactive) and the GI50 [45] was 17.6 µM (inactive). For the same compound, the GI50 [46] was 2.74 µM (inactive), the GI50 [47] was > 100 µM (inactive) and the GI50 [48] was > 100 µM (inactive). The GI50 [49] was 14.4 µM (inactive), the GI50 [50] was > 100 µM (inactive) and the GI50 [51] was > 100 µM (inactive). For the same compound, the GI50 [52] was > 61.7 µM (inactive), the GI50 [53] was 0.427 µM (active) and the GI50 [54] was > 100 µM (inactive). The GI50 [55] was > 67 µM (inactive).
`CC(=O)OC1=CC2(OC(C)=O)CC(C)(C)C1C1C(=O)C=CC(=O)C12` (configuration not stated) was tested, and the GI50 [1] was > 66.8 µM (inactive), the GI50 [2] was > 42.5 µM (inactive) and the GI50 [3] was > 100 µM (inactive). For the same compound, the GI50 [4] was > 100 µM (inactive), the GI50 [56] was > 50.7 µM (inactive) and the GI50 [5] was 17.6 µM (inactive). For the same compound, the GI50 [6] was > 100 µM (inactive), the GI50 [7] was 29.4 µM (inactive) and the GI50 [57] was 22.9 µM (inactive). For the same compound, the GI50 [58] was > 64.3 µM (inactive), the GI50 [59] was > 100 µM (inactive) and the GI50 [8] was > 75 µM (inactive). The GI50 [9] was > 47.1 µM (inactive), the GI50 [10] was 19.8 µM (inactive) and the GI50 [11] was 42.5 µM (inactive). For the same compound, the GI50 [12] was > 66.7 µM (inactive), the GI50 [13] was > 100 µM (inactive) and the GI50 [14] was 20.1 µM (inactive). For the same compound, the GI50 [15] was > 100 µM (inactive), the GI50 [16] was > 80.9 µM (inactive) and the GI50 [17] was > 100 µM (inactive). For the same compound, the GI50 [18] was > 100 µM (inactive), the GI50 [19] was > 63 µM (inactive) and the GI50 [20] was > 65 µM (inactive). For the same compound, the GI50 [60] was > 56.6 µM (inactive), the GI50 [21] was > 51.3 µM (inactive) and the GI50 [22] was > 64.6 µM (inactive). The GI50 [23] was > 100 µM (inactive), the GI50 [24] was > 85.3 µM (inactive) and the GI50 [25] was greater than 55.6 µM. The GI50 [26] was 72.8 µM (inactive), the GI50 [27] was > 100 µM (inactive) and the GI50 [61] was 11.3 µM (inactive). For the same compound, the GI50 [28] was > 70 µM (inactive), the GI50 [29] was > 42.1 µM (inactive) and the GI50 [30] was > 100 µM (inactive). For the same compound, the GI50 [31] was > 100 µM (inactive), the GI50 [32] was > 63.8 µM (inactive) and the GI50 [33] was > 100 µM (inactive). For the same compound, the GI50 [34] was 44.6 µM (inactive), the GI50 [35] was > 68.9 µM (inactive) and the GI50 [62] was 49.4 µM (inactive). The GI50 [36] was > 79.3 µM (inactive), the GI50 [63] was > 100 µM (inactive) and the GI50 [37] was > 100 µM (inactive). The GI50 [64] was 54 µM (inactive), the GI50 [38] was > 100 µM (inactive) and the GI50 [39] was > 58.3 µM (inactive). For the same compound, the GI50 [40] was > 100 µM (inactive), the GI50 [41] was > 62.8 µM (inactive) and the GI50 [42] was 41.4 µM (inactive). The GI50 [65] was 49.8 µM (inactive), the GI50 [44] was > 100 µM (inactive) and the GI50 [45] was > 73.1 µM (inactive). For the same compound, the GI50 [46] was 15.7 µM (inactive), the GI50 [66] was 57.8 µM (inactive) and the GI50 [47] was 97.1 µM (inactive). The GI50 [48] was > 100 µM (inactive), the GI50 [49] was > 36.5 µM (inactive) and the GI50 [50] was > 100 µM (inactive). For the same compound, the GI50 [67] was 31.1 µM (inactive), the GI50 [51] was > 63.5 µM (inactive) and the GI50 [52] was > 50.7 µM (inactive). For the same compound, the GI50 [53] was > 100 µM (inactive), the GI50 [68] was 32.7 µM (inactive) and the GI50 [54] was > 58.2 µM (inactive). The GI50 [55] was > 66.2 µM (inactive).
